Data reported in patent US5376679A, “Bicyclic or tricyclic biocidal compounds” (Shell Internationale Research Maatschappij B.V., priority 1988, dated 1994).

How the values were obtained:
[1] = test system: Erysiphe graminis f.sp. hordei; test: Direct antisporulant activity against barley powdery mildew (Eg); assay type: in vivo; design: scale not given here; settings: foliar spray, 1 kg/ha; activity grade 1 or 2, not defined
Text: (f) Activity Against Barley Powdery Mildew (Erysiphe graminis f.sp. hordei; Eg) The test is a direct antisporulant one, using a foliar spray. Leaves of barley seedlings, cultivar Golden Promise, are inoculated by dusting with mildew conidia one day prior to treatment with the test compound. The inoculated plants are kept overnight at glasshouse ambient temperature and humidity prior to treatment. […] After drying, plants are returned to a compartment at ambient temperature and humidity for up to 7 days, followed by assessment. Assessment is based on the percentage of leaf area covered by sporulation compared with that on leaves of control plants.

[2] = test system: Pseudocercosporella herpotrichoides; test: In vitro activity against wheat eyespot (Ph); assay type: cell-based; design: Ph: activity against wheat eyespot: scale not given here; settings: for Ph: activity against wheat eyespot: in vitro, 100 ppm in agar, 11 days, activity grade 1 or 2, not defined
Description: (c) Activity Against Wheat Eyespot (Pseudocercosporella herpotrichoides; Ph)
The test is an in vitro one. Samples are prepared wherein 0.7 mls solution containing 2 mg active material dissolved in acetone is evenly dispersed in 20 ml molten half-strength potato dextrose agar (formed by dissolving 2 g potato extract, 10 g dextrose and 7.5 g agar in 1 liter of water and sterilising for 15 minutes and 121° C.) and the resulting 20 ml portions are allowed to set in 9 cm petri dishes. The concentration of active material in the resulting samples is 100 ppm. Upon setting, two plugs of 5 mm diameter taken from the advancing edge of a stock plate of a 3 to 4 week old culture of P.herpotrichoides on full strength potato dextrose agar, incubated at 20°-22° C. in darkness, are placed, equally spaced on the surface of each sample, mycelial side uppermost. The samples are incubated for 11 days at 20°-22° C. in darkness before assessment. Diametric growth is measured with the width of the plug subtracted and results compared with growth on a sample wherein 0.7 ml acetone containing no active material is dispersed in 20 ml half-strength potato agar.

Fusarium culmorum = test: Activity against seedling wheat blight, soil drench (Fs); assay type: in vivo; design: scale not given here; settings: 10 kg/ha, 21 days, activity grade 1 or 2, not defined
Description: (d) Activity Against Seedling Wheat Blight (Fusarium culmorum; Fs)
The test is an anti-sporulant one using a soil drench. Surface sterilised wheat seeds (var Waggoner) are inoculated by soaking in an aqueous suspension containing 7×10^5 spores/ml (60 mg seed per 80 ml suspension) at 22° C. for 6 hours. The seeds are then sown in pots (5 per pot) in sand at a depth of 1 cm. 1 day after inoculation and planting the active material is applied at a rate of 10 kg/ha by pouring on a soil drench (concentration 0.36 g/l active material in 12% v/v acetone/water) evenly over the sand. The pots are then transferred to a glasshouse, kept at 25° C. and watered sparingly. 21 days after inoculation the resulting seedlings are removed from the pots and their roots are gently washed. Visual assessment is made based on lesion development on stem base and upper roots in comparison with control seedlings.

Podosphaera leucotricha = test: Direct antisporulant activity against apple powdery mildew (Pl); assay type: in vivo; settings: foliar spray, 1 kg/ha; activity grade 1 or 2, not defined
Text: (h) Activity Against Apple Powdery Mildew (Podosphaera leucotricha; Pl) The test is a direct anti-sporulant one using a foliar spray. The upper surfaces of leaves of whole seedlings are inoculated by spraying with an aqueous suspension containing 10^5 conidia/ml 2 days prior to treatment with the test compound. The inoculated plants are immediately dried and kept at glasshouse ambient temperatures and humidity prior to treatment. […] After drying the plants are returned to a compartment at ambient temperature and humidity for up to 9 days, followed by assessment. Assessment is based on the percentage of the leaf area covered by sporulation compared with that on leaves of control plants.

Plasmopara viticola [3] = test: Antisporulant activity against vine downy mildew (Pva); assay type: in vivo; settings: foliar spray, 1 kg/ha; activity grade 1 or 2, not defined
Description: (j) Antisporulant Activity Against Vine Downy Mildew (Plasmopara viticola; Pva)
The test is a direct antisporulant one using a foliar spray. The lower surfaces of leaves of whole vine plants (cv Cabernet Sauvignon) are inoculated by spraying with an aqueous suspension containing 10^4 zoosporangia/ml 2 days prior to treatment with the test compound. The inoculated plants are kept for 24 hours in a high humidity compartment, and then 24 hours at glasshouse ambient temperature and humidity. When the plants are dry, infected leaves are sprayed on their lower surfaces with a solution of active material in 1:1 water/acetone containing 0.04% w/w "Triton X-155" (trade mark) (an octylphenol polyethoxylate surfactant). The spraying is carried out with a moving track sprayer with delivers 620 liter/ha, and the concentration of active material is calculated to give an application rate of 1 kg/ha. After spraying, the plants are returned to normal glasshouse conditions for 96 hours and are then transferred to the high humidity compartment for 24 hours to induce sporulation, prior to assessment. Assessment is visual and is based on the percentage of the leaf area covered by sporulation compared with that on control leaves.

Plasmopara viticola [4] = test: Direct protectant activity against vine downy mildew (Pvp); assay type: in vivo; design: Pvp: direct protectant activity against vine downy mildew: scale not given here; settings: foliar spray, 1 kg/ha; activity grade 1 or 2, not defined
Text: (a) Direct Protectant Activity Against Vine Downy Mildew (Plasmopara viticola; Pvp)
The test is a direct protectant one, using a foliar spray. The lower surfaces of leaves of whole vine plants (cv Cabernet Sauvignon) are sprayed with a solution of active material in 1:1 v/v water/acetone containing 0.04% w "Triton X-155" (trade mark) (octylphenol polyoxyethylene surfactant), at a dosage of 1 kilogram of active material per hectare using a track sprayer which delivers 620 liters/ha, and after a subsequent 24 hours under normal glasshouse conditions the lower surfaces of the leaves are inoculated by spraying with an aqueous solution containing 10^4 zoosporangia/ml. The inoculated plants are kept for 24 hours in a high humidity compartment, 5 days under normal glasshouse conditions and then returned for a further 24 hours to high humidity. Assessment is based on the percentage of leaf area covered by sporulation compared with that on control leaves.

Leptosphaeria nodorum = test: Direct antisporulant activity against wheat leafspot (Ln); assay type: in vivo; design: scale not given here; settings: foliar spray, 1 kg/ha; activity grade 1 or 2, not defined
Description: (e) Activity Against Wheat Leafspot (Leptosphaeria nodorum; Ln) The test is a direct antisporulant one, using a foliar spray. Leaves of wheat plants ([…]), at the single leaf stage, are inoculated by spraying with an aqueous suspension containing 8×10^5 spores/mi. The inoculated plants are kept for 24 hours in a high humidity compartment prior to treatment. […] After drying, the plants are kept for 5 days under normal glasshouse conditions, followed by assessment. Assessment is based on the percentage of leaf area covered by sporulation compared with that on leaves of control plants.

Alternaria Solani = test: Direct protectant activity against tomato early blight (As); assay type: in vivo; design: As: activity against tomato early blight: scale not given here; settings: foliar spray as under (a), 8 days; activity grade 1 or 2, not defined; further: dose 1000 g/ha
Description: (g) Activity Against Tomato Early Blight (Alternaria Solani; As). The test is a direct protectant one using a foliar spray. The upper surfaces of leaves of young tomato plants are sprayed with a solution of active material as described in (a) above. After 24 hours under normal glasshouse conditions, the upper surfaces of the leaves are inoculated by spraying with an aqueous suspension containing 10^4 spores/ml. The inoculated plants are kept for 72 hours in a high humidity compartment and are then removed to lower humidity (50-70% relative humidity). Assessment is made 8 days after inoculation.

Pyricularia oryzae = assay type: in vivo; settings: foliar spray, 1 kg/ha; activity grade 1 or 2, not defined
bacteria = settings: prior art; cited from earlier work
fungi = settings: prior art; cited from earlier work
Plasmopara viticola [5] = test: Translaminar protectant test, vine downy mildew (Pvt); assay type: in vivo; settings: secondary screening
Text: The fungicidal activity of certain of the compounds was investigated further, in secondary screening.

Botrytis cinerea = test: Direct protectant activity against vine grey mould (Bcp); assay type: in vivo; settings: foliar spray, 1 kg/ha; activity grade 1 or 2, not defined
Text: (b) Direct Protectant Activity Against Vine Grey Mould (Botrytis cinerea; Bcp) The test is a direct protectant one using a foliar spray and is effected as described under (a), with the difference that the leaves are inoculated by spraying with an aqueous solution containing 10^5 conidia/ml.

Row | Structure (SMILES) | Eg: activity against barley powdery mildew [1] | Ph: activity against wheat eyespot [2] | Other: Pl, activity against apple powdery mildew (Podosphaera leucotricha) | Pvp: direct protectant activity against vine downy mildew (Plasmopara viticola [4]) | antibacterial activity (bacteria) | antifungal activity (fungi) | also measured
1 | COC(=O)N=Nc1cccc2c1OC(C)(C)C2 [Example 31] | 1 | 1 | 1 | – | – | – | Fs: activity against seedling wheat blight (Fusarium culmorum): 1
2 | COC(=O)N=Nc1cc(Cl)c(C)c2c1OC(C)C2 (stereo not shown) [Example 35] | – | 1 | – | 1 | – | – | Other: Pva, antisporulant activity against vine downy mildew (Plasmopara viticola [3]): 1
3 | C=CCOC(=O)N=Nc1ccc(C)c2c1OC(C)CC2 (stereo not shown) [Example 40] | – | – | 2 | – | – | – | Ln: activity against wheat leafspot (Leptosphaeria nodorum): 1
4 | COC(=O)N=[N+]([O-])c1ccc(C)c2c1OC(C)CC2 (stereo not shown) [Example 46] | 2 | 2 | – | 2 | – | – | As: activity against tomato early blight (Alternaria Solani): 2; Ln: activity against wheat leafspot (Leptosphaeria nodorum): 2; Other: Po, activity against rice leaf blast (Pyricularia oryzae): 2
5 | N#CN=[N+]([O-])c1ccccc1C(=O)O [2-(cyano-N,N,O-azoxy)benzoic acid] | – | – | – | – | low activity against bacteria | no relevant activity against the tested fungi | –
6 | C[S+](C)[O-].N#CN=[N+]([O-])c1ccc(C(=O)O)cc1 [4-carboxyphenylazoxycyanide-dimethylsulphoxide] | – | – | – | – | Antibacterial and antifungal properties | Antibacterial and antifungal properties | –
7 | COC(=O)c1ccc([N+]([O-])=NC#N)cc1 [calvatic acid methyl ester] | – | – | – | – | antibacterial and antifungal activity | antibacterial and antifungal activity | –
8 | CCC1Cc2c(C)ccc(N=NC(=O)OC)c2O1 (stereo not shown) [Example 37] | – | 1 | 1 | 1 | – | – | activity against Pvt (Plasmopara viticola [5]): high activity; As: activity against tomato early blight (Alternaria Solani): 1
9 | N#CN=[N+]([O-])c1ccc(C(=O)O)cc1 [calvatic acid, 4 -(cyano-N,N,O-azoxy) benzoic acid] | – | – | – | – | antibacterial and antifungal activity | antibacterial and antifungal activity | –
10 | COCC1Cc2c(Cl)c(C)cc(N=NC(=O)OC)c2O1 (stereo not shown) [Example 36] | 2 | 2 | 2 | 1 | – | – | –
11 | COC(=O)N=[N+]([O-])c1cccc2c1OC(C)(C)C2 [Example 43] | 2 | 2 | 1 | – | – | – | Bcp: direct protectant activity against vine grey mould (Botrytis cinerea): 1; activity against Ph ([2]; secondary screening): high activity
12 | COC(=O)N=Nc1cc(C)cc2c1OC(C)C2 (stereo not shown) [Example 33] | 1 | – | – | 1 | – | – | Other: Pva, antisporulant activity against vine downy mildew (Plasmopara viticola [3]): 1
